Target: T1, human CCR6 (Homo sapiens, UniProt P51684)
T1 construct: expressed in transfected cells; host or cells: Ba/F3 cells (murine pro-B line), hCCR6-transfected, CMV promoter, sodium butyrate induction
T1 sequence (P51684 1-374): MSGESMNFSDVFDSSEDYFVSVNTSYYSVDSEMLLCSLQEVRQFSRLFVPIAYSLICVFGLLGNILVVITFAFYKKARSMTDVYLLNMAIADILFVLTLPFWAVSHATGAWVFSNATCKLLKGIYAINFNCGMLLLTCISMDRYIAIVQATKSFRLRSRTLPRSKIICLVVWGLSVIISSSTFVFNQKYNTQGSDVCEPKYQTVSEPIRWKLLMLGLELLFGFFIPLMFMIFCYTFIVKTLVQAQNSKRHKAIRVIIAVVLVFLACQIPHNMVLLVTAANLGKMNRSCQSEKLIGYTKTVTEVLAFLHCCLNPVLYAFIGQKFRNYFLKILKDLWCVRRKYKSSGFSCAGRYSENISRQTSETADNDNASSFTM
Test: Migration (chemotaxis) assay, hCCR6-transfected Ba/F3 cells toward CCL20
Type: cell-based
Conditions: hCCR6-transfected Ba/F3 cells in human serum; recombinant human CCL20 10 nM; 37° C. 45 minutes; read-out: Potency (IC50 value in the migration assay)
Excerpt: A chemotaxis assay can be used to determine the efficacy of potential receptor antagonists at blocking the migration mediated through chemokine receptors, such as CCR6. This assay is routinely performed using the ChemoTX® microchamber system with a 5-μm pore-sized polycarbonate membrane. Chemokine receptor-expressing cells are required for such an assay. In this case, Ba/F3 cells (Palacios et al., Nature, 309:126, 1984) transfected with the gene for human CCR6 under control of the CMV promotor were used. To begin such an assay, hCCR6-transfected Ba/F3 cells are first grown for 24 hr in medium supplemented with sodium butyrate, which increases CCR6 transcription via the CMV promotor. The prepared Ba/F3 cells, are collected by centrifugation at 400×g at room temperature, then suspended at 4 million/ml in human serum. The compound being tested is serially diluted from a maximum final concentration of 10 μM (or an equivalent volume of its solvent (DMSO)) and is then added to the cell/serum mixture. Separately, recombinant human CCL20 (MIP-3α/LARC) at its EC50 concentration (10 nM) is placed in the lower wells of the ChemoTX® plate. The 5-μm (pore size) polycarbonate membrane is placed onto the plate, and 20 μL of the cell/compound mixture is transferred onto each well of the membrane. The plates are incubated at 37° C. for 45 minutes, after which the polycarbonate membranes are removed and 5 μl of the DNA-intercalating dye CyQUANT (Invitrogen, Carlsbad, CA) is added to the lower wells. The amount of fluorescence, corresponding to the number of migrated cells, is measured using a Spectrafluor Plus plate reader (TECAN, San Jose, CA).

NC(=O)N1CCc2nc(-c3ccc(S(=O)(=O)N4CCC(Nc5ccc(C(F)(F)F)cn5)CC4)cc3)sc2C1 [Example 1.102] and O=S(=O)(c1ccc(-c2nc3c(s2)CNCC3)cc1)N1CCC(Nc2ccc(C(F)(F)F)cn2)CC1 [Example 1.106] fall in the same range of IC50: 100 to 10000 nM for the first, 100 to 10000 nM for the second.

Cc1n[nH]c2ccc(-c3ccc(S(=O)(=O)N4CCC(Nc5ccc(C(F)(F)F)cn5)CC4)cc3)cc12 [Example 1.094] and Cc1nc2cc(-c3ccc(S(=O)(=O)N4CCC(Nc5ccc(C(F)(F)F)cn5)CC4)cc3)ccc2[nH]1 [Example 1.092] fall in the same range of IC50: 5 to 100 nM for the first, 5 to 100 nM for the second.

NC(=O)C1(O)CCN(c2ccc(S(=O)(=O)N3CCC(Nc4ccc(C(F)(F)F)cn4)CC3)cc2)CC1 [Example 1.166] and O=S(=O)(c1ccc(N2CCC(O)(CO)CC2)cc1)N1CCC(Nc2ccc(C(F)(F)F)cn2)CC1 [Example 1.168] fall in the same range of IC50: 5 to 100 nM for the first, 5 to 100 nM for the second.

First: CC(=O)N1CCN(c2ccc(S(=O)(=O)N3CCC(Nc4ccc(C(F)(F)F)cn4)CC3)cc2)CC1 [Example 1.226]
Second: CS(=O)(=O)N1CCCN(c2ccc(S(=O)(=O)N3CCC(Nc4ccc(C(F)(F)F)cn4)CC3)cc2)CC1 [Example 1.199]
The IC50 of the first is lower: 5 to 100 nM for the first, 100 to 10000 nM for the second.

Compared with N#Cc1c[nH]c2ccc(-c3ccc(S(=O)(=O)N4CCC(Nc5ccc(C(F)(F)F)cn5)CC4)cc3)cc12 [Example 1.114], N#Cc1c[nH]c2ccc(-c3ccc([S@](=N)(=O)N4CCC(Nc5ccc(C(F)(F)F)cn5)CC4)cc3)cc12 [Example 1.103] is higher in IC50: < 5 nM for the first, 5 to 100 nM for the second.

First: O=S(=O)(c1ccc(-c2ccc3[nH]cnc3c2)cc1)N1CCC(Nc2ccc(C(F)(F)F)cn2)CC1 [Example 1.110]
Second: O=S(=O)(c1ccc(-c2ccc3[nH]ccc3c2)cc1)N1CCC(Nc2ccc(C(F)(F)F)cn2)CC1 [Example 1.119]
The IC50 of the first is lower: < 5 nM for the first, 100 to 10000 nM for the second. The first is the more potent here.

CS(=O)(=O)NC1CCN(c2ccc(S(=O)(=O)N3CCC(Nc4ccc(C(F)(F)F)cn4)CC3)cc2)CC1 [Example 1.206] and CS(=O)(=O)NC1CC2(C1)CN(c1ccc(S(=O)(=O)N3CCC(Nc4ccc(C(F)(F)F)cn4)CC3)cc1)C2 [Example 1.161] fall in the same range of IC50: 5 to 100 nM for the first, 5 to 100 nM for the second.

Compared with Cc1nc2c(s1)CN(c1ccc(S(=O)(=O)N3CCC(Nc4ccc(C(F)(F)F)cn4)CC3)cc1)CC2 [Example 1.221], O=S(=O)(c1ccc(N2CCn3ccnc3C2)cc1)N1CCC(Nc2ccc(C(F)(F)F)cn2)CC1 [Example 1.229] is higher in IC50: 5 to 100 nM for the first, 100 to 10000 nM for the second.

CC(=O)NCCC1CCN(c2ccc(S(=O)(=O)N3CCC(Nc4ccc(C(F)(F)F)cn4)CC3)cc2)CC1 [Example 1.126] and CC(C)(C(N)=O)C1CCN(c2ccc(S(=O)(=O)N3CCC(Nc4ccc(C(F)(F)F)cn4)CC3)cc2)CC1 [Example 1.123] fall in the same range of IC50: 5 to 100 nM for the first, 5 to 100 nM for the second.

O=C1NCCc2cc(-c3ccc(S(=O)(=O)N4CCC(Nc5ccc(C(F)(F)F)cn5)CC4)cc3)ccc21 [Example 1.075] and O=C1NCCc2ccc(-c3ccc(S(=O)(=O)N4CCC(Nc5ccc(C(F)(F)F)cn5)CC4)cc3)cc21 [Example 1.066] cannot be ordered by IC50: < 5 nM for the first, < 5 nM for the second.

N#Cc1c[nH]c2ncc(-c3ccc(S(=O)(=O)[C@H]4CC[C@H](Nc5ccc(C(F)(F)F)cn5)CC4)cc3)cc12 [Example 1.071] and N#Cc1c[nH]c2ncc(-c3ccc(S(=O)(=O)N4CCC(Nc5ccc(C(F)(F)F)cc5)CC4)cc3)cc12 [Example 1.056] cannot be ordered by IC50: < 5 nM for the first, < 5 nM for the second.

CC(C)(C)OC(=O)N[C@H]1CCN(c2ccc(S(=O)(=O)N3CCC(Nc4ccc(C(F)(F)F)cn4)CC3)cc2)C1 [Example 1.218] and CC(C)(C)OC(=O)N[C@H]1CCCN(c2ccc(S(=O)(=O)N3CCC(Nc4ccc(C(F)(F)F)cn4)CC3)cc2)C1 [Example 1.219] fall in the same range of IC50: 100 to 10000 nM for the first, 100 to 10000 nM for the second.

First: O=S(=O)(c1ccc(-c2ccc3c(c2)CNC3)cc1)N1CCC(Nc2ccc(C(F)(F)F)cn2)CC1 [Example 1.058]
Second: O=C1Cc2cc(-c3ccc(S(=O)(=O)N4CCC(Nc5ccc(C(F)(F)F)cn5)CC4)cc3)ccc2N1 [Example 1.076]
The IC50 of the first is higher: 100 to 10000 nM for the first, < 5 nM for the second. The second is the more potent here.

N#Cc1cc2ccc(-c3ccc(S(=O)(=O)N4CCC(Nc5ccc(C(F)(F)F)cn5)CC4)cc3)cc2[nH]1 [Example 1.079] and O=S(=O)(c1ccc(-c2ccc3[nH]ncc3c2)cc1)N1CCC(Nc2ccc(C(F)(F)F)cn2)CC1 [Example 1.096] fall in the same range of IC50: 5 to 100 nM for the first, 5 to 100 nM for the second.

O=c1[nH]c2ccc(-c3ccc(S(=O)(=O)N4CCC(Nc5ccc(C(F)(F)F)cn5)CC4)cc3)cc2n1C1CC1 [Example 1.052] and O=c1[nH]c2ccc(-c3ccc(S(=O)(=O)N4CCC(Nc5ccc(C(F)(F)F)cn5)CC4)cc3)cc2n1C1COC1 [Example 1.041] fall in the same range of IC50: 5 to 100 nM for the first, 5 to 100 nM for the second.

Nc1cc2cc(-c3ccc(S(=O)(=O)N4CCC(Nc5ccc(C(F)(F)F)cn5)CC4)cc3)cnc2o1 [Example 1.081] and Nc1nc2ccc(-c3ccc(S(=O)(=O)N4CCC(Nc5ccc(C(F)(F)F)cn5)CC4)cc3)cc2o1 [Example 1.086] cannot be ordered by IC50: < 5 nM for the first, < 5 nM for the second.

First: Cn1nc(C(N)=O)c2cc(-c3ccc(S(=O)(=O)N4CCC(Nc5ccc(C(F)(F)F)cn5)CC4)cc3)ccc21 [Example 1.090]
Second: NC(=O)CN1Cc2ccc(-c3ccc(S(=O)(=O)N4CCC(Nc5ccc(C(F)(F)F)cn5)CC4)cc3)cc2C1=O [Example 1.040]
The IC50 of the first is lower: < 5 nM for the first, 5 to 100 nM for the second.

CC1(C)Oc2ccc(-c3ccc(S(=O)(=O)N4CCC(Nc5ccc(C(F)(F)F)cn5)CC4)cc3)cc2NC1=O [Example 1.031] and O=S(=O)(c1ccc(-c2ccc3c(c2)NCCO3)cc1)N1CCC(Nc2ccc(C(F)(F)F)cn2)CC1 [Example 1.035] fall in the same range of IC50: 5 to 100 nM for the first, 5 to 100 nM for the second.

Compared with COc1cc(-c2ccc(S(=O)(=O)N3CCC(Nc4ccc(C(F)(F)F)cn4)CC3)cc2)cc2c1NC(=O)C2 [Example 1.045], COC(=O)c1cc(-c2ccc(S(=O)(=O)N3CCC(Nc4ccc(C(F)(F)F)cn4)CC3)cc2)cc2c1NC(=O)C2 [Example 1.027] is lower in IC50: 5 to 100 nM for the first, < 5 nM for the second.

First: O=S(=O)(c1ccc(N2CCC(c3nnn[nH]3)CC2)cc1)N1CCC(Nc2ccc(C(F)(F)F)cn2)CC1 [Example 1.128]
Second: O=S(=O)(c1ccc(N2CCOCC2)cc1)N1CCC(Nc2ccc(C(F)(F)F)cn2)CC1 [Example 1.129]
The IC50 of the first is higher: 100 to 10000 nM for the first, 5 to 100 nM for the second.

O=S(=O)(c1ccc(N2CC[C@H](O)[C@@H](CO)C2)cc1)N1CCC(Nc2ccc(C(F)(F)F)cn2)CC1 [Example 1.181] and CC1(CC(N)=O)CCN(c2ccc(S(=O)(=O)N3CCC(Nc4ccc(C(F)(F)F)cn4)CC3)cc2)CC1 [Example 1.136] fall in the same range of IC50: 5 to 100 nM for the first, 5 to 100 nM for the second.

Compared with O=C1CCc2cc(-c3ccc(S(=O)(=O)N4CCC(Nc5ccc(C(F)(F)F)cn5)CC4)cc3)ccc2N1 [Example 1.078], O=C1Nc2ccc(-c3ccc(S(=O)(=O)N4CCC(Nc5ccc(C(F)(F)F)cn5)CC4)cc3)cc2C12CCOCC2 [Example 1.036] is lower in IC50: 5 to 100 nM for the first, < 5 nM for the second. The second is the more potent here.

First: NCCN1C(=O)C2(CC2)c2cc(-c3ccc(S(=O)(=O)N4CCC(Nc5ccc(C(F)(F)F)cn5)CC4)cc3)cnc21 [Example 1.002]
Second: O=C1c2cc(-c3ccc(S(=O)(=O)N4CCC(Nc5ccc(C(F)(F)F)cn5)CC4)cc3)ccc2CN1CCO [Example 1.033]
The IC50 of the first is higher: 5 to 100 nM for the first, < 5 nM for the second. The second is the more potent here.

CC(C)(C)OC(=O)N1CC=C(c2ccc(S(=O)(=O)N3CCC(Nc4ccc(C(F)(F)F)cn4)CC3)cc2)CC1 [Example 1.234] and NC(=O)N1CCC(c2ccc(S(=O)(=O)N3CCC(Nc4ccc(C(F)(F)F)cn4)CC3)cc2)CC1 [Example 1.216] fall in the same range of IC50: 5 to 100 nM for the first, 5 to 100 nM for the second.

Reference: patent publication US12012403B2, “Aryl sulfonyl compounds as CCR6 inhibitors” (CHEMOCENTRYX, INC., priority 2021, dated 2024)
